Test results from patent EP0879051B9, “RATE-CONTROLLED TRANSDERMAL ADMINISTRATION OF RISPERIDONE” (JANSSEN PHARMACEUTICA N.V., priority 1995, dated 1996).

Assay: In vitro transdermal permeation of risperidone, two-compartment diffusion cell
Type: in vitro ADME, hairless rats
Description: Experimental Part : In vitro study of the transdermal permeation of risperidone.
An in vitro model using a vertical, two-compartment diffusion cell assembly mounted with freshly excised full thickness abdominal skin of hairless rats (Iffa credo) was used in this study. […] The receptor solution in all experiments consisted of Hanks Balanced Salt Solution (Gibco BRL) with sodium azide). The skin permeation profile was followed for up to 50 h by sampling the receptor solution and assaying the drug concentration by measuring the radioactivity (Ready Safe, Beckmann-Wallac 1410LKB). The ratio of the cumulated quantities detected in the receptor compartment to the skin area (ng/cm^2) were plotted in function of the time and the flux of risperidone through the skin in the presence of various solvents and skin permeation enhancers was deduced from the linear part of the plotted results.

[1] = Experiment 2: donor borate buffer pH 10, 0.1 M (900 µl/ml) + ethanol (95%; 100 µl/ml) + risperidone (100 µg/ml)
[2] = Experiment 4: donor propylene glycol + lauric acid (LA) 5%, risperidone 10 mg/ml
[3] = Experiment 4: donor propylene glycol + oleic acid (OA) 5%, risperidone 10 mg/ml
[4] = donor propylene glycol, 0% enhancer, risperidone 10 mg/ml

`Cc1nc2n(c(=O)c1CCN1CCC(c3noc4cc(F)ccc34)CC1)CCCC2` [risperidone, 3-[2-[4-(6-fluoro-1,2-benzisoxazol-3-yl)-1-piperidinyl]ethyl]-6,7,8,9-tetrahydro-2-methyl-4H-pyrido[1,2-a]pyrimidin-4-one] showed a flux (Experiment 1: donor borate buffer pH 10, 0.1 M + risperidone at 40mg/ml) of 0.181 µg/cm^2.h, a flux [1] of 0.869 µg/cm^2.h and a latency period [1] of 13.9 h. For the same molecule, the “flux (1%)” value (Experiment 3: donor propylene glycol + eucalyptus oil 1%, risperidone 10 mg/ml) was 4.54 µg/cm^2.h, the “latency period (5%)” value (Experiment 3: donor propylene glycol + eucalyptus oil 5%, risperidone 10 mg/ml) was 6.2 h and the “flux (5%)” value (Experiment 3: donor propylene glycol + eucalyptus oil 5%, risperidone 10 mg/ml, very high flux probably due to skin damage) was 126.74 µg/cm^2.h. The “latency period (LA %)” value (Experiment 3: donor propylene glycol + eucalyptus oil (printed 'LA %'), risperidone 10 mg/ml) was 15.2 h, the “flux (5% LA)” value [2] was 15.39 µg/cm^2.h and the “latency period (5% LA)” value [2] was 4.3 h. The “flux (5% OA)” value [3] was 18.9 µg/cm^2.h, the “latency period (5% OA)” value [3] was 17 h and the “flux (0%)” value [4] was 3.89 µg/cm^2.h. For the same molecule, the “latency period (0%)” value [4] was 14.2 h.
